{"source": "patent US9889135B2", "about": "“Companion diagnostic for CDK4 inhibitors” (Memorial Sloan-Kettering Cancer Center, priority 2013, dated 2018)", "key": {"[1]": {"system": "p27 in responder and non-responder cells", "assay": "p27 levels by immunoblot", "assay_type": "cell-based, human", "text": "FIG. 22. Additional immunoblot analysis in responder and non-responder cells. […] Actin is a loading control. This experiment was repeated at least three times for each cell line."}, "[2]": {"system": "MDM2 in glioma (U87MG, U251, SNB19, DBTRG-05MG) and breast cancer (MDA453, T47D, ZR-75-1, and MCF7) cells", "assay": "MDM2 levels in glioma and breast cancer cell lines", "assay_type": "cell-based", "settings": "eight glioma and breast cancer cell lines", "text": "(§1) FIG. 19A-C. Senescence associated with the downregulation of MDM2 is p53 and INK4 independent. […] This experiment was repeated three times with similar results in both LS8817 and LS141. […] The p53 mutational status of these cell lines (WT, wild type; R273H and L194F, missense mutations; if-DEL, in-frame deletion of 30 nucleotides at amino acid 368) were obtained from the p53 mutation database and the RIKEN bioresource databank and is consistent with the detection of p21 by immunoblot. (C) SNB19 cells, a p53 mutant and INK4A deficient cell, was transduced with the mutants described in panel A and their effect on senescence determined.\nAntibodies against CDK4 (3F121), MDM2 (SMP-14), total RB (IFS), Cyclin A (H432), p16 (C20), and p53 (Bp53-12), were obtained from Santa Cruz Biotechnology, phospho-Rb 780 (#9307) from Cell Signalling, and ARF (3642) from Abeam. Treated cells were lysed with buffer composed of 50 mM Tris-HCl, pH7.4, 250 mM NaCl, 5 mM EDTA, 0.5% NP40, 2 mM PMSF, and supplemented with protease inhibitors. Eighty micrograms of protein were resolved by SDS-PAGE and transferred to PVDF membranes. Membranes were incubated overnight with antibodies (1:1000)."}, "[3]": {"system": "Glioma (U87MG, U251, SNB19, DBTRG-05MG) and breast cancer (MDA453, T47D, ZR-75-1, and MCF7) cells", "assay": "SA-β-gal senescence in glioma and breast cancer cell lines", "assay_type": "cell-based", "settings": "eight cell lines, some p53 and/or INK4 mutant", "text": "as §1\nCells were plated at a concentration of 25,000 per well in a 4-well chamber slides (Lab-Tek) and treated for seven days with drug and stained for senescence-associated β-galactosidase (Cell Signaling kit #9860). Cell number was quantitated by DAPI staining and β-galactosidase staining quantitated as a proportion of total cells."}, "[4]": {"system": "CHK2 mobility and KAP1 phosphorylation in WD/DDLS cell lines", "assay": "markers of ATM activity by immunoblot", "assay_type": "cell-based, human", "settings": "LS8817, LS141, LS8107, LS8313 and LS7785-1", "text": "Extracts from control and irradiated mouse embryo fibroblasts were included as a control. Tubulin is a control. (B) γH2AX and 53BP1 foci were scored in the indicated cell lines. As per (Doll et al., 2009; […] et al., 2012) having a cell with greater than 10 foci (white) is considered positive for DNA damage. As expected for WD/DDLS cell lines the basal level of DNA damage was quite high."}, "[5]": {"system": "T98G glioma cells", "assay": "senescence-associated β-galactosidase staining", "assay_type": "cell-based", "settings": "after treatment", "procedure": "(§2) Cells were plated at a concentration of 25,000 per well in a 4-well chamber slides (Lab-Tek) and treated for seven days with drug or shRNA as described above and stained for senescence-associated β-galactosidase (Cell Signaling kit #9860). Cell number was quantitated by DAPI staining and β-galactosidase staining quantitated as a proportion of total cells. Senescence associated heterochromatic foci were quantitated after cells were fixed with 4% paraformaldehyde, permeabilized with 0.1% Triton, blocked with 2% FBS, and stained with antibodies against HP1γ (1:5000 dilution, 2MOD-1G6 Millipore). Senescent cells were identified by immunofluorescence after treatment of slides with anti-mouse secondary antibodies and quantitation of focal SAHF as a percent of total cells (Leica Upright Confocal SP5 confocal microscope). Actin was marked using phalloidin staining (1:500, Invitrogen) and cells were counterstained with DAPI. Cell area was measured by with Metamorph software to calculate relative area per cell."}, "[6]": {"system": "SNB19 glioma cells", "assay": "senescence-associated β-galactosidase staining", "assay_type": "cell-based", "procedure": "as §2"}, "[7]": {"system": "DKMG glioma cells", "assay": "senescence-associated β-galactosidase staining", "assay_type": "cell-based", "procedure": "as §2"}, "[8]": {"system": "MCF7 breast cancer cells", "assay": "senescence-associated β-galactosidase staining", "assay_type": "cell-based", "procedure": "as §2"}, "[9]": {"system": "DBTRG-05MG glioma cells", "assay": "senescence-associated β-galactosidase staining", "assay_type": "cell-based", "procedure": "as §2"}, "[10]": {"system": "T98G glioma cells", "assay": "PD-induced growth arrest (BrdU incorporation)", "assay_type": "cell-based", "settings": "BrdU incorporation 7 days after treatment", "procedure": "(§3) Cell lines were maintained in DMEM High glucose (HG) supplemented with 10% heat-inactivated fetal bovine serum. Glioma cell lines, DKMG, SNB19, DBTRG-05MG, and […], were maintained in DMEM HG supplemented with 10% fetal bovine serum and 2 mM glutamine. The MCF7 breast cancer cell line was maintained in RPMI-1640 media supplemented with 10% fetal bovine serum and 2 mM glutamine.\n(§4) shRNA were delivered in the pLKO.1 vector (Sigma) and infected cells selected using puromycin (1 μg/ml); infection with a virus carrying a scramble control ([…]) was used as a control in all experiments utilizing shRNA. Cell lines were treated with […] or shRNA directed against CDK4 ([…] (SEQ ID NO:4)), MDM2 (M376, […] (SEQ ID NO:5); M380, […] (SEQ ID NO:6)), HAUSP (4057, […] (SEQ ID NO:7); 845, […] (SEQ ID NO:8)) or CDK6 ([…] (SEQ ID NO:9)) for 48 hours to 7 days and stained with BrdU (20 μM for two hours) or annexin V as previously described (22, 48). […] was determined by staining with propidium iodine and FACS analyses (49).\n(§5) Cells were stained with BrdU (20 μM for two hours) or annexin V as previously described (22, 48). […] was determined by staining with propidium iodine and FACS analyses (49)."}, "[11]": {"system": "SNB19 glioma cells", "assay": "PD-induced growth arrest (BrdU incorporation)", "assay_type": "cell-based", "settings": "BrdU incorporation 7 days after treatment", "procedure": "as §3, §4, §5"}, "[12]": {"system": "DKMG glioma cells", "assay": "PD-induced growth arrest (BrdU incorporation)", "assay_type": "cell-based", "settings": "BrdU incorporation 7 days after treatment", "procedure": "as §3, §4, §5"}, "[13]": {"system": "MCF7 breast cancer cells", "assay": "PD-induced growth arrest (BrdU incorporation)", "assay_type": "cell-based", "settings": "BrdU incorporation 7 days after treatment", "procedure": "as §3, §4, §5"}, "[14]": {"system": "DBTRG-05MG glioma cells", "assay": "PD-induced growth arrest (BrdU incorporation)", "assay_type": "cell-based", "settings": "BrdU incorporation 7 days after treatment", "procedure": "as §3, §4, §5"}}, "data": [{"smiles": "CC(=O)c1c(C)c2cnc(Nc3ccc(N4CCNCC4)cn3)nc2n(C2CCCC2)c1=O", "note": "[PD0332991]", "values": [{"measurement": "p27 levels", "setting": "[1]", "value": "unchanged"}, {"measurement": "MDM2 levels", "setting": "[2]", "value": "decreased"}, {"measurement": "senescence as measured by accumulation of SA-β-gal", "setting": "[3]", "value": "All of the cell lines underwent senescence"}, {"measurement": "CHK2 mobility or KAP1 phosphorylation, markers of ATM activity", "setting": "[4]", "value": "did not induce significant changes"}, {"measurement": "increase in the number of SA-β-gal cells", "setting": "[5]", "value": "not observed"}, {"measurement": "PD-induced SA-β-gal", "setting": "[6]; 7 days of treatment", "value": "Y (Y, yes: the number of SA-β-gal cells increases at least 10X after 7 days of treatment)"}, {"measurement": "number of SA-β-gal cells", "setting": "[6]; seven days after exposure", "value": "significant increase"}, {"measurement": "PD-induced SA-β-gal", "setting": "[7]; 7 days of treatment", "value": "Y (Y, yes: the number of SA-β-gal cells increases at least 10X after 7 days of treatment)"}, {"measurement": "number of SA-β-gal cells", "setting": "[7]; seven days after exposure", "value": "significant increase"}, {"measurement": "PD-induced SA-β-gal", "setting": "[8]; 7 days of treatment", "value": "Y (Y, yes: the number of SA-β-gal cells increases at least 10X after 7 days of treatment)"}, {"measurement": "number of SA-β-gal cells", "setting": "[8]; seven days after exposure", "value": "significant increase"}, {"measurement": "PD-induced SA-β-gal", "setting": "[9]; 7 days of treatment", "value": "Y (Y, yes: the number of SA-β-gal cells increases at least 10X after 7 days of treatment)"}, {"measurement": "number of SA-β-gal cells", "setting": "[9]; seven days after exposure", "value": "significant increase"}, {"measurement": "PD-induced growth arrest", "setting": "[10]", "value": "+ (BrdU incorporation is reduced at least 8X 7 days after treatment with the drug)"}, {"measurement": "PD-induced growth arrest", "setting": "[11]", "value": "+ (BrdU incorporation is reduced at least 8X 7 days after treatment with the drug)"}, {"measurement": "PD-induced growth arrest", "setting": "[12]", "value": "+ (BrdU incorporation is reduced at least 8X 7 days after treatment with the drug)"}, {"measurement": "PD-induced growth arrest", "setting": "[13]", "value": "+ (BrdU incorporation is reduced at least 8X 7 days after treatment with the drug)"}, {"measurement": "PD-induced growth arrest", "setting": "[14]", "value": "+ (BrdU incorporation is reduced at least 8X 7 days after treatment with the drug)"}]}]}
